From patent publication US7803801B2, “Aminopyridine compounds having Syk inhibitory activity” (Japan Tobacco, Inc., priority 2005, dated 2010)
Where a name gives a salt, the structure may show the parent alone.

How the values were obtained:
[1] = biological target: GST-Syk Full Protein (human) (Homo sapiens, UniProt P43405); test: Syk kinase inhibition test (HTRF method); type: biochemical; settings: Tables 1-x, compounds A; read-out: sykHTRF ave IC50
Summary of the method: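 HTRF read-out: after EDTA termination and 1 h with XL665-streptavidin and Eu-anti-phosphotyrosine, the 665/620 nm ratio was measured. The reaction ran 30 min at 20–25 °C with final 6.4 nM human GST-Syk, 250 nM biotinylated peptide, 100 μM ATP, pH 7.0 HEPES buffer, 2% DMSO.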

[2] = system: cultured human mast cells; test: Degranulation inhibition test using cultured human mast cells (IgE cross-linking, β-Hexosaminidase release); type: cell-based; settings: Mast cell; Tables 1-x, compounds A; cultured human mast cells; read-out: human degranulation ave. IC50
Summary of the method: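 Degranulation was triggered by anti-hIgE (10 μg/mL final, 30 min, 37 °C) after a 10-min compound pretreatment (DMSO 0.1%) of cord-blood CD34+-derived mast cells primed 5 days with IL-4 and IgE. β-Hexosaminidase in supernatant was measured with p-nitrophenyl-GlcNAc substrate (A405), expressed against water-lysed total; IC50 (M).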

| SMILES | IC50 [1] | IC50 [2] |
| --- | --- | --- |
| CC1(c2ccnc(Nc3cccc(-c4cnc(N5CCC[C@@H](C(N)=O)C5)s4)n3)c2)OCCO1 [Compound A-565, (R)-1-(5-{6-[4-(2-methyl-[1,3]dioxolan-2-yl)pyridin-2-ylamino]pyridin-2-yl}thiazol-2-yl)piperidine-3-carboxamide] | < 100 nM | 100 to 1000 nM |
| Cc1ccnc(Nc2cccc(-c3cnc(N(C)CC(=O)N[C@H](C(=O)O)C(C)C)s3)n2)c1 [Compound A-568, (S)-3-methyl-2-[2-(N-methyl-N-{5-[6-(4-methylpyridin-2-ylamino)pyridin-2-yl]thiazol-2-yl}amino)acetylamino]butyric acid dihydrochloride] | < 100 nM | > 1000 nM |
| Cc1ccnc(Nc2cccc(-c3cnc(N(C)CC(=O)NCCC(=O)O)s3)n2)c1 [Compound A-570, 3-[2-(N-methyl-N-{5-[6-(4-methylpyridin-2-ylamino)pyridin-2-yl]thiazol-2-yl}amino)acetylamino]propionic acid dihydrochloride] | < 100 nM | > 1000 nM |
| Cc1ccnc(Nc2cccc(-c3cnc(N(C)CC(=O)NCC(=O)O)s3)n2)c1 [Compound A-571, [2-(N-methyl-N-{5-[6-(4-methylpyridin-2-ylamino)pyridin-2-yl]thiazol-2-yl}amino)acetylamino]acetic acid dihydrochloride] | < 100 nM | > 1000 nM |
| CC1(c2ccnc(Nc3cccc(-c4cnc(N5CCC(CC(=O)O)CC5)s4)n3)c2)OCCO1 [Compound A-572, [1-(5-{6-[4-(2-methyl-[1,3]dioxolan-2-yl)pyridin-2-ylamino]pyridin-2-yl}thiazol-2-yl)piperidin-4-yl]acetic acid dihydrochloride] | < 100 nM | 100 to 1000 nM |
| O=C(O)CC1CCN(c2ncc(-c3cccc(Nc4ccccn4)n3)s2)CC1 [Compound A-573, (1-{5-[6-(pyridin-2-ylamino)pyridin-2-yl]thiazol-2-yl}piperidin-4-yl)acetic acid dihydrochloride] | < 100 nM | > 1000 nM |
| Cc1ccnc(Nc2cccc(-c3cnc(N(C)Cc4ccc(C(=O)O)cc4)s3)n2)c1 [Compound A-574, 4-[(N-methyl-N-{5-[6-(4-methylpyridin-2-ylamino)pyridin-2-yl]thiazol-2-yl}amino)methyl]benzoic acid dihydrochloride] | < 100 nM | 100 to 1000 nM |
| Cc1ccnc(Nc2cccc(-c3cnc(N(C)[C@H]4CN[C@H](C(=O)O)C4)s3)n2)c1 [Compound A-579, (2S,4R)-4-(N-methyl-N-{5-[6-(4-methylpyridin-2-ylamino)pyridin-2-yl]thiazol-2-yl}amino)pyrrolidine-2-carboxylic acid] | < 100 nM | > 1000 nM |
| Cc1ccnc(Nc2cccc(-c3cnc(N(C)CC(=O)N(C)CC(=O)O)s3)n2)c1 [Compound A-580, {N-methyl-N-[2-(N′-methyl-N′-{5-[6-(4-methylpyridin-2-ylamino)pyridin-2-yl]thiazol-2-yl}amino)acetyl]amino}acetic acid dihydrochloride] | < 100 nM | > 1000 nM |
| Cc1ccnc(Nc2cccc(-c3cnc(N(C)Cc4cccc(C(=O)O)c4)s3)n2)c1 [Compound A-586, 3-[(N-methyl-N-{5-[6-(4-methylpyridin-2-ylamino)pyridin-2-yl]thiazol-2-yl}amino)methyl]benzoic acid dihydrochloride] | < 100 nM | > 1000 nM |
| Cc1ccnc(Nc2cccc(-c3cnc(N(C)Cc4ccc(CC(=O)O)cc4)s3)n2)c1 [Compound A-587, {4-[(N-methyl-N-{5-[6-(4-methylpyridin-2-ylamino)pyridin-2-yl]thiazol-2-yl}amino)methyl]phenyl}acetic acid dihydrochloride] | < 100 nM | 100 to 1000 nM |
| Cc1ccnc(Nc2cccc(-c3cnc(N(C)CCc4ccc(C(=O)O)cc4)s3)n2)c1 [Compound A-593, 4-[2-(N-methyl-N-{5-[6-(4-methylpyridin-2-ylamino)pyridin-2-yl]thiazol-2-yl}amino)ethyl]benzoic acid dihydrochloride] | < 100 nM | 100 to 1000 nM |
| CN(Cc1ccc(C(=O)O)cc1)c1ncc(-c2cccc(Nc3cc(C4(C)OCCO4)ccn3)n2)s1 [Compound A-596, 4-{[N-methyl-N-(5-{6-[4-(2-methyl-[1,3]dioxolan-2-yl)pyridin-2-ylamino]pyridin-2-yl}thiazol-2-yl)amino]methyl}benzoic acid] | < 100 nM | 100 to 1000 nM |
| Cc1ccnc(Nc2cccc(-c3cnc(N(CC(=O)N(C)C)Cc4ccc(C(=O)O)cc4)s3)n2)c1 [Compound A-597, 4-[(N-dimethylcarbamoylmethyl-N-{5-[6-(4-methylpyridin-2-ylamino)pyridin-2-yl]thiazol-2-yl}amino)methyl]benzoic acid dihydrochloride] | < 100 nM | > 1000 nM |
| Cc1ccnc(Nc2cccc(-c3cnc(N(CC(N)=O)[C@H]4CC[C@@H](C(=O)O)CC4)s3)n2)c1 [Compound A-598, cis-4-(N-carbamoylmethyl-N-{5-[6-(4-methylpyridin-2-ylamino)pyridin-2-yl]thiazol-2-yl}amino)cyclohexanecarboxylic acid] | < 100 nM | > 1000 nM |
| Cc1ccnc(Nc2cccc(-c3cnc(N(CC(N)=O)C[C@H]4CC[C@H](C(=O)O)CC4)s3)n2)c1 [Compound A-599, trans-4-[(N-carbamoylmethyl-N-{5-[6-(4-methylpyridin-2-ylamino)pyridin-2-yl]thiazol-2-yl}amino)methyl]cyclohexanecarboxylic acid] | < 100 nM | > 1000 nM |
| Cc1ccnc(Nc2cccc(-c3cnc(N(CC(N)=O)[C@H]4CC[C@H](C(=O)O)CC4)s3)n2)c1 [Compound A-600] | 100 to 1000 nM | > 1000 nM |
| Cc1ccnc(Nc2cccc(-c3cnc(N(CC(=O)N(C)C)C[C@H]4CC[C@H](C(=O)O)CC4)s3)n2)c1 [Compound A-601] | 100 to 1000 nM | > 1000 nM |
| Cc1ccnc(Nc2cccc(-c3cnc(N(CC(=O)N(C)C)[C@H]4CC[C@H](C(=O)O)CC4)s3)n2)c1 [Compound A-602] | 100 to 1000 nM | > 1000 nM |

Further lines, results first:

| IC50 [1] | IC50 [2] | SMILES |
| --- | --- | --- |
| < 100 nM | 100 to 1000 nM | Cc1ccnc(Nc2cccc(-c3cnc(N4CCC[C@@H](CC(=O)O)C4)s3)n2)c1 [Compound A-567, ((S)-1-{5-[6-(4-methylpyridin-2-ylamino)pyridin-2-yl]thiazol-2-yl}piperidin-3-yl)acetic acid] |
| < 100 nM | > 1000 nM | Cc1ccnc(Nc2cccc(-c3cnc(N4CC[C@@H](OCC(=O)O)C4)s3)n2)c1 [Compound A-575, ((R)-1-{5-[6-(4-methylpyridin-2-ylamino)pyridin-2-yl]thiazol-2-yl}pyrrolidin-3-yloxy)acetic acid dihydrochloride] |
| < 100 nM | > 1000 nM | Cc1ccnc(Nc2cccc(-c3cnc(N4CCC(C(=O)O)C4)s3)n2)c1 (stereo not drawn) [Compound A-576, 1-{5-[6-(4-methylpyridin-2-ylamino)pyridin-2-yl]thiazol-2-yl}pyrrolidine-3-carboxylic acid dihydrochloride] |
| < 100 nM | 100 to 1000 nM | OCCc1ccnc(Nc2cccc(-c3cnc(N4CC[C@@H](O)C4)s3)n2)c1 [Compound A-577, (R)-1-(5-{6-[4-(2-hydroxyethyl)pyridin-2-ylamino]pyridin-2-yl}thiazol-2-yl)pyrrolidin-3-ol dihydrochloride] |
| < 100 nM | > 1000 nM | Cc1ccnc(Nc2cccc(-c3cnc(N4CCc5c(cccc5C(=O)O)C4)s3)n2)c1 [Compound A-582, 2-{5-[6-(4-methylpyridin-2-ylamino)pyridin-2-yl]thiazol-2-yl}-1,2,3,4-tetrahydroisoquinoline-5-carboxylic acid] |
| < 100 nM | > 1000 nM | Cc1ccnc(Nc2cccc(-c3cnc(N4CCC(CC(=O)O)C4)s3)n2)c1 (stereo not drawn) [Compound A-588, (1-{5-[6-(4-methylpyridin-2-ylamino)pyridin-2-yl]thiazol-2-yl}pyrrolidin-3-yl)acetic acid] |
| < 100 nM | > 1000 nM | Cc1ccnc(Nc2cccc(-c3cnc(N4CCN(CC(=O)O)CC4)s3)n2)c1 [Compound A-589, (4-{5-[6-(4-methylpyridin-2-ylamino)pyridin-2-yl]thiazol-2-yl}piperazin-1-yl)acetic acid dihydrochloride] |
| < 100 nM | 100 to 1000 nM | Cc1ccnc(Nc2cccc(-c3cnc(N(C)[C@H]4CC[C@@H](C(=O)O)CC4)s3)n2)c1 [Compound A-591, cis-4-(N-methyl-N-{5-[6-(4-methylpyridin-2-ylamino)pyridin-2-yl]thiazol-2-yl}amino)cyclohexanecarboxylic acid] |
| < 100 nM | 100 to 1000 nM | Cc1ccnc(Nc2cccc(-c3cnc(N(C)[C@H]4CC[C@H](C(=O)O)CC4)s3)n2)c1 [Compound A-592, trans-4-(N-methyl-N-{5-[6-(4-methylpyridin-2-ylamino)pyridin-2-yl]thiazol-2-yl}amino)cyclohexanecarboxylic acid] |
| < 100 nM | > 1000 nM | Cc1ccnc(Nc2cccc(-c3cnc(N4CCC(OCC(=O)O)CC4)s3)n2)c1 [Compound A-594, (1-{5-[6-(4-methylpyridin-2-ylamino)pyridin-2-yl]thiazol-2-yl}piperidin-4-yloxy)acetic acid dihydrochloride] |
| < 100 nM | 100 to 1000 nM | Cc1ccnc(Nc2cccc(-c3cnc(C4CCC(CC(=O)O)CC4)s3)n2)c1 (stereo not drawn) [Compound A-595, (4-{5-[6-(4-methylpyridin-2-ylamino)pyridin-2-yl]thiazol-2-yl}cyclohexyl)acetic acid hydrochloride] |
